In patent publication US20060286131A1, “Use of stellate ganglion block for the treatment of hot flashes and other conditions” (priority 2005, published 2006):

Tested on: severe menopausal hot flashes
Test: stellate ganglion block with Marcaine in women with hot flashes, self-reported pre and post block
Type: in vivo
Text: A stellate ganglion block is illustratively performed by placing the patient in the supine position (on the back) with the neck slightly extended and the jaw open. While the patient is usually conscious for the procedure, a medication such as Versed (midazolam hydrochloride), fentanyl, or other sedative is often administered, to relax the patient. A local anesthetic is also usually administered, to numb the skin and tissue down to the ganglion nerve. A needle is inserted toward the stellate ganglion. […] The needle 20 is shown inserted adjacent to the stellate ganglion 10. In the illustrative block, a contrast solution is injected through needle 20 via syringe 22, and the needle position is confirmed by fluoroscopy or other means, as are known in the art.
The anesthetic 30 is then injected via needle 20 into stellate ganglion 10. Illustratively, 5 cc 0.375% Marcaine® (bupivacaine) may be used. However, it is understood that other anesthetics, illustratively lidocaine, morphine or other opioids, clonidine, botox, or tetracine, or a combination of anesthetic and epinephrine, may be used and that the dosage range may vary depending on the particular anesthetic and other factors, as are known in the art. Needle 20 is removed, and the patient is optionally placed in the sitting position to facilitate the spread of anesthesia inferiorly to the stellate ganglion. Illustratively, longer acting anesthetics such as bupivacaine are used, but other anesthetics may be used, as are known in the art. The stellate ganglion block may also be performed by radiofrequency lesioning, as is known in the art.
Six women suffering from severe menopausal hot flashes each received a standard stellate ganglion block (0.375% Marcaine, 5cc), as described above. Hot flashes were assessed by self-reporting pre and post stellate ganglion block.

## CCCCN1CCCCC1C(=O)Nc1c(C)cccc1C (stereo not shown) [Marcaine, bupivacaine]
0.375% Marcaine 5cc, second block after mild hot flashes returned
  additional asymptomatic period of relief after second stellate ganglion block: 4-18 weeks
Repeated blocks, each case
  hot flash relief of repeated blocks compared with the initial block: equal to or greater than that of the initial block
Six women, 0.375% Marcaine 5cc
  success of initial stellate ganglion block, evidenced by positive Horner's syndrome and anhydrosis: successful in all six subjects
Six women, 0.375% Marcaine 5cc, first block, self-reported
  complete alleviation of hot flashes, duration after initial stellate ganglion block: 2-5 weeks
